Reference: PubChem BioAssay AID2060485 (Molecular Pharmacology Branch, DTP, NCI, 2025)

System: A375 multi-cell spheroids with HUVEC/MSC, viability
Assay: Anticancer human tumor A375 cell line growth inhibition [GQUAD];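 also: spheroids exposed to compounds for seven days before readout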
Conditions: for IC50: curve of first compound; for viability, T/C: stronger effect = lower value
In short: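 Tumor cells were grown as complex spheroids with HUVEC endothelial cells and mesenchymal stem cells as stroma. G-quadruplex stabilizers were combined with targeted agents over half-log dilutions from near the clinical Cmax, or from 10 microM.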

[1] = second compound 0.0316 µM, first compound 0.0316 µM
[2] = second compound 0.0316 µM, first compound 0.1 µM
[3] = second compound 0.0316 µM, first compound 0.316 µM
[4] = second compound 0.0316 µM, first compound 1 µM
[5] = second compound 0.0316 µM, first compound 3.16 µM
[6] = second compound 0.0316 µM, first compound 10 µM
[7] = second compound 0.1 µM, first compound 0.0316 µM
[8] = second compound 0.1 µM, first compound 0.1 µM
[9] = second compound 0.1 µM, first compound 0.316 µM
[10] = second compound 0.1 µM, first compound 1 µM
[11] = second compound 0.1 µM, first compound 3.16 µM
[12] = second compound 0.1 µM, first compound 10 µM
[13] = second compound 0.316 µM, first compound 0.0316 µM
[14] = second compound 0.316 µM, first compound 0.1 µM
[15] = second compound 0.316 µM, first compound 0.316 µM
[16] = second compound 0.316 µM, first compound 1 µM
[17] = second compound 0.316 µM, first compound 3.16 µM
[18] = second compound 0.316 µM, first compound 10 µM
[19] = second compound 1 µM, first compound 0.0316 µM
[20] = second compound 1 µM, first compound 0.1 µM
[21] = second compound 1 µM, first compound 0.316 µM
[22] = second compound 1 µM, first compound 1 µM
[23] = second compound 1 µM, first compound 3.16 µM
[24] = second compound 1 µM, first compound 10 µM
[25] = second compound 3.16 µM, first compound 0.0316 µM
[26] = second compound 3.16 µM, first compound 0.1 µM
[27] = second compound 3.16 µM, first compound 0.316 µM
[28] = second compound 3.16 µM, first compound 1 µM
[29] = second compound 3.16 µM, first compound 3.16 µM
[30] = second compound 3.16 µM, first compound 10 µM
[31] = second compound 10 µM, first compound 0.0316 µM
[32] = second compound 10 µM, first compound 0.1 µM
[33] = second compound 10 µM, first compound 0.316 µM
[34] = second compound 10 µM, first compound 1 µM
[35] = second compound 10 µM, first compound 3.16 µM
[36] = second compound 10 µM, first compound 10 µM

SMILES: COc1ncnc(C2CC2)c1-c1ncc2cnn(Cc3ccc(-c4nc(C(F)(F)F)cn4C(C)C)cc3)c2n1 + CN(C)c1ccc(Nc2c3ccc(NC(=O)CCN4CCCC4)cc3nc3cc(NC(=O)CCN4CCCC4)ccc23)cc1
- IC50 (second compound 0.0316 µM): > 10 µM
- IC50 (second compound 0.1 µM): > 10 µM
- IC50 (second compound 0.316 µM): > 10 µM
- IC50 (second compound 1 µM): > 10 µM
- IC50 (second compound 3.16 µM): > 10 µM
- IC50 (second compound 10 µM): > 10 µM
- viability, T/C [1]: 108%
- viability, T/C [2]: 100%
- viability, T/C [3]: 115%
- viability, T/C [4]: 104%
- viability, T/C [5]: 108%
- viability, T/C [6]: 104%
- viability, T/C [7]: 105%
- viability, T/C [8]: 105%
- viability, T/C [9]: 102%
- viability, T/C [10]: 103%
- viability, T/C [11]: 105%
- viability, T/C [12]: 114%
- viability, T/C [13]: 103%
- viability, T/C [14]: 110%
- viability, T/C [15]: 110%
- viability, T/C [16]: 101%
- viability, T/C [17]: 107%
- viability, T/C [18]: 105%
- viability, T/C [19]: 109%
- viability, T/C [20]: 91%
- viability, T/C [21]: 101%
- viability, T/C [22]: 112%
- viability, T/C [23]: 104%
- viability, T/C [24]: 102%
- viability, T/C [25]: 109%
- viability, T/C [26]: 102%
- viability, T/C [27]: 109%
- viability, T/C [28]: 104%
- viability, T/C [29]: 106%
- viability, T/C [30]: 104%
- viability, T/C [31]: 93%
- viability, T/C [32]: 101%
- viability, T/C [33]: 94%
- viability, T/C [34]: 98.9%
- viability, T/C [35]: 96.1%
- viability, T/C [36]: 92.8%

SMILES: COc1ccc([C@@H](O)c2cc(-c3ncnc4cc(N5CCOCC5)ccc34)c(F)cc2Cl)nn1 + Cc1[nH]c2ccc(F)cc2c1-c1nc2c3cccnc3c3ncccc3c2[nH]1
- IC50 (second compound 0.0316 µM): > 10 µM
- IC50 (second compound 0.1 µM): > 10 µM
- IC50 (second compound 0.316 µM): > 10 µM
- IC50 (second compound 1 µM): > 10 µM
- IC50 (second compound 3.16 µM): > 10 µM
- IC50 (second compound 10 µM): > 10 µM
- viability, T/C [1]: 105%
- viability, T/C [2]: 108%
- viability, T/C [3]: 103%
- viability, T/C [4]: 126%
- viability, T/C [5]: 100%
- viability, T/C [6]: 77.5%
- viability, T/C [7]: 106%
- viability, T/C [8]: 102%
- viability, T/C [9]: 105%
- viability, T/C [10]: 112%
- viability, T/C [11]: 96.6%
- viability, T/C [12]: 85.6%
- viability, T/C [13]: 103%
- viability, T/C [14]: 112%
- viability, T/C [15]: 105%
- viability, T/C [16]: 110%
- viability, T/C [17]: 95.3%
- viability, T/C [18]: 87.9%
- viability, T/C [19]: 106%
- viability, T/C [20]: 112%
- viability, T/C [21]: 109%
- viability, T/C [22]: 113%
- viability, T/C [23]: 98.2%
- viability, T/C [24]: 68.1%
- viability, T/C [25]: 101%
- viability, T/C [26]: 96%
- viability, T/C [27]: 101%
- viability, T/C [28]: 79.1%
- viability, T/C [29]: 77.2%
- viability, T/C [30]: 50.4%
- viability, T/C [31]: 113%
- viability, T/C [32]: 107%
- viability, T/C [33]: 122%
- viability, T/C [34]: 97.2%
- viability, T/C [35]: 78.2%
- viability, T/C [36]: 56.3%
